Series [1] relates to Feline coronavirus ATCC VR-989. To be noted: 0.7% Formaldehyde. As for the experimental part: (§1) In addition, the formaldehyde cytotoxicity of neutralised formaldehyde is determined to measure assay sensitivity.
(§2) TCID50 was determined by the method of Karber (1Kärber, G.: Beitrag zur Kollektiven Behandlung Pharmakologischer Reihenversuche. Arch. Exp. Path. Pharmak. 162 (1931): 480-487.). Test virus suspension has at least a concentration which allows the determination of a 4 log10 reduction of the virus titre. The number of infectious virus particles is quantified by using the Median Tissue Culture Infectious Dose (TCID50) assay. The assay works by adding a serial dilution of the virus sample to cells in a 96 well plate format. The type of cell is specifically selected to show a cytopathic effect (CPE), i.e. morphological changes upon infection with the virus or cell death. After an incubation period, the cells are inspected for CPE or cell death and each well is classified as infected or not infected. Colorimetric or fluorometric readouts are also possible, which can increase assay sensitivity. The dilution, at which 50% of the wells show a CPE, is used to calculate the TCID50 of the virus sample. This calculation can generally be done by a variety of mathematical approaches, e.g., the Spearman-Karber method or the Reed-Muench method. Virus quantity is expressed as TCID50/ml.

A further series deals with CRFK cells. Briefly: Cytotoxicity control on the titration cells. To be noted: 0.7% Formaldehyde, neutralised. As to the method:
as §1, §2

The structures appear in SMILES notation. Like-named read-outs stand apart in the source and are kept apart here.

On to `C=O` [Formaldehyde, formaldehyde], for which, in series [1] (exposure time 30 mins), the “TCID50/ml (recovered virus)” value worked out at 3.16E+02 TCID50/ml, the “log (TCID50/ml)” value is on record as 2.50 log and the log difference is reported as 3.17 log. Moreover, in series [1] (exposure time 60 mins), the “TCID50/ml (recovered virus)” value is on record as 3.16E+02 TCID50/ml, the “log (TCID50/ml)” value is given as 2.50 log and the log difference is recorded as 3.17 log. Besides, in the series with CRFK cells, the “Cytotoxicity TCID50/ml” value stood at 3.16E+02 TCID50/ml and the “Cytotoxicity log (TCID50/ml)” value is on record as 2.50 log.

Values taken from US20240180160A1, “ANTIVIRAL POLYMER MATERIAL” (VALE BROTHERS LIMITED, priority 2021, published 2024).
